{"source": "patent US4908352A", "about": "“Urotensin peptides” (The Salk Institute for Biological Studies, priority 1987, dated 1990)", "key": {"[1]": {"test_system": "cultured rat pituitary cells", "experiment": "Secretion of ACTH and β-endorphin by cultured rat pituitary cells", "assay_type": "cell-based", "conditions": "relative potency, reference not named", "text": "(§1) The urotensin peptide from Example II is examined for effects on the secretion of ACTH and β-endorphin in vitro and also examined in vivo. A low potency (4%) to stimulate the secretion of ACTH and β-endorphinby cultured rat pituitary cells is observed. The peptide also stimulates ACTH and B-END-LI secretion in vivo in several rat preparations. UI activity of the peptide is evident in the isolated rat hind limb assay, Lederis, K. et al. \"Effects and Assay of Urotensin I on the Perfused Hind Limb of the Rat\", Gen. Comp. Endocrinol., 24:10-16, 1974. In vivo hypotensive activity of extracted peptides is measured in anaesthetized rats, Lederis, K. and Medakovic, M. \"Pharmacological Observations on the Hypotensive Actin of Extracts of Teleost Fish Urophyses (Urotensin I) in the Rat\", Br. J. Pharmacol. 51:315-324, 1974, and in anaesthetized dogs, MacCannell and Lederis, \"Dilatation of the Mesenteric Vascular Bed of the Dog Produced by a Peptide, Urotensin I\", J. Pharm. Exp. Ther. 203:38-46, 1977."}, "[2]": {"experiment": "ACTH and B-END-LI secretion in vivo in several rat preparations", "text": "as §1"}, "[3]": {"test_system": "Perfused Hind Limb of the Rat", "experiment": "Isolated rat hind limb assay (UI activity)", "text": "as §1"}, "[4]": {"experiment": "In vivo hypotensive activity in anaesthetized rats", "conditions": "anaesthetized rat", "text": "as §1"}, "[5]": {"test_system": "mesenteric vascular bed", "experiment": "In vivo hypotensive activity / mesenteric vasodilatation in anaesthetized dogs", "parameters": "species or system dog", "text": "as §1\nIn the pentobarbital-anaesthetized dog, the threshold dose of Maggy UI for mesenteric vasodilatation, when given close arterially into the cephalic mesenteric A, is between 0.001 and 0.01 μg."}, "[6]": {"test_system": "teleost fish pituitaries", "experiment": "Secretion of ACTH by teleost fish pituitaries"}, "[7]": {"test_system": "isolated mesenteric artery strips of the rat", "experiment": "Isolated mesenteric artery strips of the rat", "text": "The synthetic peptides described above with respect to Example I are generally equipotent with the extracted and purified peptide, as tested in the anaesthetized dog in vivo and when tested in isolated mesenteric artery strips of the rat according to Muramatsu, I., Miura, A., Fujiwara, M. and Lederis, K., Gen. Comp. Endocrinol. 45:446-452, 1981."}, "[8]": {"experiment": "ACTH and β-endorphin secretion, general procedure of Example III (in vitro / in vivo not separated)", "text": "as §1"}, "[9]": {"experiment": "Vasodilatory-hypotensive activity, general procedure of Example III (species not separated)", "assay_type": "in vivo", "conditions": "for mesenteric blood flow / systemic blood pressure / vasodilatory-hypotensive activity: general procedure of Example III; for vasodilatory-hypotensive activity: mammalian", "text": "as §1"}, "[10]": {"conditions": "pentobarbital-anaesthetized dog, doses of 0.1-0.5 μg"}}}
{"substance": "H-SEEPPMSIDLTFHMLRNMIHRAKMEGEREQALINRNLLDEV-NH2 [Maggy UI]", "values": [{"measurement": "potency to stimulate the secretion of ACTH and β-endorphin", "setting": "[1]", "result": 4, "unit": "%"}, {"measurement": "ACTH and B-END-LI secretion in vivo", "setting": "[2]", "result": "stimulates"}, {"measurement": "UI activity", "setting": "[3]", "result": "evident"}, {"measurement": "blood pressure", "setting": "[4]", "result": "more marked fall in blood pressure"}, {"measurement": "blood pressure", "setting": "[5]; anaesthetized dog", "result": "modest but sustained depression of the blood pressure"}, {"measurement": "dilatation of vascular beds other than the mesenteric", "setting": "[5]; anaesthetized dog", "result": "does not dilate other vascular beds"}, {"measurement": "activity compared with the extracted and purified peptide", "setting": "[5]; anaesthetized dog in vivo", "result": "not significantly different"}, {"measurement": "accompanying change in blood pressure (decrease)", "setting": "[5]; [10]", "result": "about 10%"}, {"measurement": "mesenteric flow", "setting": "[5]; [10]", "result": "significant increase"}, {"measurement": "potency in stimulating the secretion of ACTH compared with amunine", "setting": "[6]", "result": "somewhat more potent than amunine"}, {"measurement": "activity compared with the extracted and purified peptide", "setting": "[7]", "result": "not significantly different"}, {"measurement": "ACTH and β-endorphin activities", "setting": "[8]; in vitro and in vivo (summary statement)", "result": "stimulate ACTH and β-endorphin activities in vitro and in vivo"}, {"measurement": "blood pressure", "setting": "[9]; summary statement", "result": "substantially lower blood pressure for an extended time period"}]}
{"substance": "H-SEEPPMSIDLTFHMLRNMIHRAKMEGER-NH2 [Example V, H-Ser-Glu-Glu-Pro-Pro-Met-Ser-Ile-Asp-Leu-Thr-Phe-His-Met-Leu-Arg-Asn-Met- Ile-His-Arg-Ala-Lys-Met-Glu-Gly-Glu-Arg-NH2]", "values": [{"measurement": "mesenteric blood flow", "setting": "[9]", "result": "increasing"}, {"measurement": "systemic blood pressure", "setting": "[9]", "result": "lowering"}, {"measurement": "vasodilatory-hypotensive activity", "setting": "[9]", "result": "significant"}]}
{"substance": "Ac-SEEPPMSIDLTFHMLRNMIHRAKMEGEREQALINRNLLDEV-NH2 [IV]", "values": [{"measurement": "secretion of ACTH and β-END-LI", "setting": "[8]; general procedure of Example III", "result": "stimulates"}, {"measurement": "mesenteric blood flow", "setting": "[9]", "result": "very significant increasing"}, {"measurement": "systemic blood pressure", "setting": "[9]", "result": "lowering"}, {"measurement": "vasodilatory-hypotensive activity", "setting": "[9]", "result": "causes vasodilatory-hypotensive activity"}]}
